Reference: PMC5665883, “Antithrombotic properties of JJ1, a potent and novel thrombin inhibitor” (Scientific Reports, 2017)
Marks after values point to notes of the source that are not given here.

How the values were obtained:
[1] = Acute pulmonary thrombosis induced by collagen and epinephrine; format: in vivo, C57BL/6 mice; details: mice, i.v. 1 h before collagen (500 μg/kg) plus epinephrine (50 μg/kg)
Procedure: Male C57BL/6 mice were fasted overnight and divided into groups of 10 animals. JJ1 suspended in DMSO was administered to mice intravenously. After 1 h, a mixture of collagen (500 μg/kg) plus epinephrine (50 μg/kg) was injected into the tail vein of mice to induce acute thrombosis 1 h later. Each mouse was carefully examined for 15 min to determine whether the mouse was paralyzed, dead, or had recovered from the acute thrombotic challenge. Five separate experiments were performed and the results were subjected to statistical analysis.

Factor Xa = target: T1, Factor Xa (Homo sapiens, UniProt P00742); assay: Chromogenic substrate assay, Ki (Dixon); format: biochemical
T1 construct: thrombin versus trypsin, factor Xa, elastase, plasmin, protein Ca, streptokinase, tPA, and urokinase; purchased Haematologic Technologies (Essex Junction, VT)

Factor XIa = target: T2, Factor XIa (Homo sapiens, UniProt P03951); assay: Chromogenic substrate assay, Ki (Dixon); format: biochemical
T2 construct: Factor XIa
Procedure: (§1) Chromogenic substrate assays were performed using a Labsystems IEMS (Cergy Pontoise, France) microtiter plate reader. K i values were calculated according to the method of Dixon[65]. In each assay, the compound was tested at a minimum of seven concentrations, in duplicate, to obtain an inhibition curve. The following general procedures were adopted for each assay. In a 96-well microtiter plate, 25 μL of inhibitor solution or buffer was added to 50 μL of substrate. The enzyme solution (25 μL) was added just before the plate was placed in the microtiter plate reader for 1 h at 37 °C. The hydrolysis of the substrate yields p-nitroaniline, which was continuously monitored spectrophotometrically at 405 nm. The maximal initial reaction rates were calculated and expressed as millioptical density per minute.

Factor IXa = target: T3, Factor IXa (Homo sapiens, UniProt P00740); assay: Chromogenic substrate assay, Ki (Dixon); format: biochemical
T3 construct: Factor IXa
Procedure: as §1

human plasma = assay: In vitro PT clotting time; format: biochemical; details: at the maximum antithrombotic dose
Ex vivo PT clotting time = format: in vivo, C57BL/6 mice; details: mice, i.v.; for PT: 1 h after administration
Procedure: The aPTT and PT were determined using a Thrombotimer (Behnk Elektronik, Norderstedt, Germany) in accordance with the manufacturer’s instructions and as previously described. Briefly, citrated normal human plasma (90 μL) was mixed with 10 μL JJ1 and incubated for 1 min at 37 °C. Subsequently, the aPTT assay reagent (100 μL) was added, the plasma sample was incubated for an additional 1 min at 37 °C, 20 mM CaCl2 (100 μL) was added, and the clotting times were recorded. For the PT assays, citrated normal human plasma (90 μL) was mixed with 10 μL JJ1 stock solution and was incubated for 1 min at 37 °C. The PT assay reagent (200 μL), which had been pre-incubated for 10 min at 37 °C, was subsequently added and the clotting time was recorded. The PT results were expressed in seconds and as International Normalized Ratios (INR): INR = (PT sample/PT control)^ISI, where ISI = international sensitivity index. The aPTT results were also expressed in seconds. All experimental protocols (KNUH 2012-01-010) were approved by the Institutional Review Board of Kyungpook National University Hospitals (Daegu, Republic of Korea).
Male C57BL/6 mice were fasted overnight. Each compound was dissolved in 0.5% DMSO and administered by i.v. injection. One hour after administration, arterial blood samples (0.1 mL) were collected in 3.8% sodium citrate (1:10, v/v) for the ex vivo aPTT and PT determination. The clotting times were determined as described above.

clot-bound thrombin = target: T4, clot-bound thrombin (Homo sapiens, UniProt P00734); assay: Clot-bound thrombin assay, FPA generation (ELISA); format: biochemical; details: 60 min of incubation, FPA by ELISA; read-out: IC50, inhibition of FPA generation by clot-bound thrombin
T4 construct: Fibrin clots were formed by recalcification of citrated plasma and washed extensively; from tissue; host or cells: fibrin clots from recalcified citrated plasma
Procedure: Fibrin clots were formed by recalcification of citrated plasma and washed extensively to remove any FPA trapped within the clots. Plasma was then placed over the washed clots and FPA generation was determined. There was a time-dependent generation of FPA in plasma that was not caused by the release of FPA trapped within the washed clots, because the addition of buffer over the clots produced only a minimal amount of FPA (5.25 ± 0.35 nM at 60 min) (Fig. 8). The endogenous FPA level was 5.05 ± 0.31 nM in these studies.
The generation of FPA in plasma with or without JJ1 was quantified in accordance with the manufacturer’s instructions by using a commercially available ELISA kit (LSBio, Seattle, WA). Values were measured using an ELISA plate reader (Tecan, Austria GmbH, Austria).

Plasmin = target: T5, Plasmin (Homo sapiens, UniProt P00747); assay: Chromogenic substrate assay, Ki (Dixon); format: biochemical
T5 construct: thrombin versus trypsin, factor Xa, elastase, plasmin, protein Ca, streptokinase, tPA, and urokinase

tPA = tPA (Homo sapiens, UniProt P00750); assay: Chromogenic substrate assay, Ki (Dixon); format: biochemical
Streptokinase = Streptokinase (Homo sapiens, UniProt P00747); assay: Chromogenic substrate assay, Ki (Dixon); format: biochemical
[2] = In vivo tail bleeding time; design: species or system C57BL/6 mice; details: mice, i.v. injection, 1 h after administration
Procedure: Tail bleeding times were measured by using the method of Dejana et al.[63],[64]. Briefly, C57BL/6 mice were fasted overnight prior to the experiments. One hour after the i.v. administration of JJ1, the tails of the mice were transected at 2 mm from their tips. The bleeding time was defined as the time elapsed until the bleeding stopped. Bleeding times exceeding 15 min were recorded as lasting for 15 min.

T5 sequence (P00747 581-810 limits assumed): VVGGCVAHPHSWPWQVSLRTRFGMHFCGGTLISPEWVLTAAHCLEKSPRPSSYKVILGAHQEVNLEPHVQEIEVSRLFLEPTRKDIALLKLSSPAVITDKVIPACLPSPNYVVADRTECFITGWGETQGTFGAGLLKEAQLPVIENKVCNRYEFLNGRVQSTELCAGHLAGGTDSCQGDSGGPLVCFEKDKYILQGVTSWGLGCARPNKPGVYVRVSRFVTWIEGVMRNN
T5 sequence (P00747 97-580 limits assumed): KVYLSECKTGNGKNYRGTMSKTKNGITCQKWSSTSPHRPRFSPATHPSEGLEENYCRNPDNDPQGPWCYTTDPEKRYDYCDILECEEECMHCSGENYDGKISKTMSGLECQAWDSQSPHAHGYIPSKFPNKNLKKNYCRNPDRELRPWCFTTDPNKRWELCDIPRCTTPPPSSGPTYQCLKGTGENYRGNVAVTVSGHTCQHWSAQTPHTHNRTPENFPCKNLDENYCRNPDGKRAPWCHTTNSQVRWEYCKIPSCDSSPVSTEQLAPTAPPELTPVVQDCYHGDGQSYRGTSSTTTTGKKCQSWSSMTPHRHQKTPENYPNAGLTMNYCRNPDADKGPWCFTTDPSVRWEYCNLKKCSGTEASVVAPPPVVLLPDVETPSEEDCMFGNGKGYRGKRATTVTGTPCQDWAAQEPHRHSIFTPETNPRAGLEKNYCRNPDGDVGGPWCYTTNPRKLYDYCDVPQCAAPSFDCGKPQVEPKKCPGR
Chain of Streptokinase (P00747 581-810 limits assumed): as the sequence (P00747 581-810 limits assumed) above
T3 sequence (P00740 227-461 limits assumed): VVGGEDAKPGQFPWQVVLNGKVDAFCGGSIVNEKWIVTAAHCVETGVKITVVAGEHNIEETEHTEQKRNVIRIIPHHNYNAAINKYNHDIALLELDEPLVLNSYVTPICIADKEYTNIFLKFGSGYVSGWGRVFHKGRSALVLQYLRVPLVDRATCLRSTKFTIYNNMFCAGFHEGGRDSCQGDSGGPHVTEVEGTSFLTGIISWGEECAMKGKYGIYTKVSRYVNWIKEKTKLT
T3 sequence (P00740 47-191 limits assumed): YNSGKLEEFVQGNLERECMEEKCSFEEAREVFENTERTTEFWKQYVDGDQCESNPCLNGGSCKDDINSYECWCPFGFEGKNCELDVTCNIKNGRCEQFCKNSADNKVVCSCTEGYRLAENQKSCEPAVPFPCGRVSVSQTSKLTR
T1 sequence (P00742 235-488 limits assumed): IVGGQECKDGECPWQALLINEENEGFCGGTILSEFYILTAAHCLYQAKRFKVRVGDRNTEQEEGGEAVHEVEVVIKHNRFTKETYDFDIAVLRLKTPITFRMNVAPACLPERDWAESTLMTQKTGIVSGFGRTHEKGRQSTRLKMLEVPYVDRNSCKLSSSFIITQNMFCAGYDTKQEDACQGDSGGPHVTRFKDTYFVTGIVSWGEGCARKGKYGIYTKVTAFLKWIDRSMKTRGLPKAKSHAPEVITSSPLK
T1 sequence (P00742 41-179 limits assumed): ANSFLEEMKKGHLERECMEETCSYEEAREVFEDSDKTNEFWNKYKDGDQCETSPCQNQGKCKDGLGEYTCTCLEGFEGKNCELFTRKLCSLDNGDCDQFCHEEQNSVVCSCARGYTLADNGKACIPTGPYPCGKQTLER
T2 sequence (P03951 388-625 limits assumed): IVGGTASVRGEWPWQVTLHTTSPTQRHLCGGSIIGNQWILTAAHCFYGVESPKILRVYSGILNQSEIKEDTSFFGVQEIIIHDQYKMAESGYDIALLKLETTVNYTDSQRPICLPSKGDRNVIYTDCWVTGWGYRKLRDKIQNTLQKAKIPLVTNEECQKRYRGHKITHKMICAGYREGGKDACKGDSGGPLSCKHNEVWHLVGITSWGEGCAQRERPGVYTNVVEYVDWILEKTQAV
T2 sequence (P03951 19-387 limits assumed): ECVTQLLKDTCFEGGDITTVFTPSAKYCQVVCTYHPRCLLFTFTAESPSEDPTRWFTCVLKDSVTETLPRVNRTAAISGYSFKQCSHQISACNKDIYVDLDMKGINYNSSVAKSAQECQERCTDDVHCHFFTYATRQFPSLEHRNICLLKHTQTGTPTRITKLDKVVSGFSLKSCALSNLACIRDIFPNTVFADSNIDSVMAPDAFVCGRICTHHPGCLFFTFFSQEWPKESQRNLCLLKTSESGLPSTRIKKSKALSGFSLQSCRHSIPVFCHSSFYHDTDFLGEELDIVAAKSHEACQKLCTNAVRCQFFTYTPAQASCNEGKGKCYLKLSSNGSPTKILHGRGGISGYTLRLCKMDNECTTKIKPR
Chain of tPA (P00750 36-562): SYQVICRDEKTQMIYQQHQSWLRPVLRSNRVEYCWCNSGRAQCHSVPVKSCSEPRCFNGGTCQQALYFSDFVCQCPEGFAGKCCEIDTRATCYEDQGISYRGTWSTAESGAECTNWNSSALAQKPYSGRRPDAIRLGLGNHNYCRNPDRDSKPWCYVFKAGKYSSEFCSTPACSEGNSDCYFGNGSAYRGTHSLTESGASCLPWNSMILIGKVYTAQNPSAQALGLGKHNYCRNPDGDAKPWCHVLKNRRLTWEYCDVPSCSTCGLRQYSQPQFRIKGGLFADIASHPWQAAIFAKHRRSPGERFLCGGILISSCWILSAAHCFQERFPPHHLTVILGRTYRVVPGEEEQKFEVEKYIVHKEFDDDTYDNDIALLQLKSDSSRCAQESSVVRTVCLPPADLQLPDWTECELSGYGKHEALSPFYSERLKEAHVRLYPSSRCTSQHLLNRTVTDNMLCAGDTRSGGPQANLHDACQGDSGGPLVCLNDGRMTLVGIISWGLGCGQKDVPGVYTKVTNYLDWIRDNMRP

## c1ccc2c(NC3CCCC3)nc(Nc3ccncc3)nc2c1 [JJ1]
[1]
  Mortality: decreased significantly
Factor Xa; Factor Xa
  Ki: > 250 µM
Factor Xa; K i Factor Xa/K i α-thrombin
  Selectivity ratio: >10,000
Factor XIa; Factor XIa
  Ki: > 250 µM
Factor XIa; K i Factor XIa/K i α-thrombin
  Selectivity ratio: >10,000
Factor IXa; Factor IXa
  Ki: > 250 µM
Factor IXa; K i Factor IXa/K i α-thrombin
  Selectivity ratio: >10,000
Human plasma
  Prolongation of PT: 2.22 fold
Ex vivo PT clotting time; 0.31 μg/mouse
  PT (INR): 1.08 INR
  PT: 12.4 ± 0.5 s
Ex vivo PT clotting time; 0.61 μg/mouse
  PT (INR): 2.37 INR
  PT: 17.2 ± 1.4 s
Ex vivo PT clotting time; 1.23 μg/mouse
  PT (INR): 4.42* INR
  PT: 22.3 ± 0.6 s
Ex vivo PT clotting time; 3.06 μg/mouse
  PT (INR): 6.88* INR
  PT: 26.8 ± 0.4 s
clot-bound thrombin
  IC50: 2.45 µM
Plasmin; K i Plasmin/K i α-thrombin
  Selectivity ratio: >10,000
Plasmin; Plasmin
  Ki: > 250 µM
tPA; K i tPA/K i α-thrombin
  Selectivity ratio: >10,000
tPA; tPA
  Ki: > 250 µM
Streptokinase; K i Streptokinase/K i α-thrombin
  Selectivity ratio: >10,000
Streptokinase; Streptokinase
  Ki: > 250 µM
[2]; 0.31 μg/mouse
  Tail bleeding time: 30.6 ± 0.8 s
[2]; 0.61 μg/mouse
  Tail bleeding time: 37.2 ± 1.0 s
[2]; 1.23 μg/mouse
  Tail bleeding time: 44.8 ± 1.2 s
[2]; 3.06 μg/mouse
  Tail bleeding time: 52.2 ± 1.4 s
